One block for each molecule: values may come before it.
Assays:
Type in all cases: tissue-based
[1] = biological target: Muscarinic acetylcholine receptor; experiment: Compound was tested for its ability to inhibit muscarinic receptor in rat cerebral cortex using [3H]quinuclidinyl benzilate (QNB); Range is 4300-9500
[2] = biological target: Muscarinic acetylcholine receptor; experiment: Compound was tested for its ability to inhibit muscarinic receptor in rat cerebral cortex using [3H]oxotremorine-M (OXO-M); Range is 120-220
[3] = biological target: Muscarinic acetylcholine receptor; experiment: Compound was tested for its ability to inhibit muscarinic receptor in rat cerebral cortex using [3H]quinuclidinyl benzilate (QNB); Range is 530-1100
[4] = biological target: Muscarinic acetylcholine receptor; experiment: Compound was tested for its ability to inhibit muscarinic receptor in rat cerebral cortex using [3H]oxotremorine-M (OXO-M); Range is 48-100
[5] = biological target: Muscarinic acetylcholine receptor; experiment: Compound was tested for its ability to inhibit muscarinic receptor in rat cerebral cortex using [3H]oxotremorine-M (OXO-M); Range is 28-58
[6] = biological target: Muscarinic acetylcholine receptor; experiment: Compound was tested for its ability to inhibit muscarinic receptor in rat cerebral cortex using [3H]oxotremorine-M (OXO-M); Range is 240-290
[7] = biological target: Muscarinic acetylcholine receptor; experiment: Compound was tested for its ability to inhibit muscarinic receptor in rat cerebral cortex using [3H]quinuclidinyl benzilate (QNB);
[8] = biological target: Muscarinic acetylcholine receptor; experiment: Compound was tested for its ability to inhibit muscarinic receptor in rat cerebral cortex using [3H]oxotremorine-M (OXO-M); Range is 21-36
[9] = biological target: Muscarinic acetylcholine receptor; experiment: Compound was tested for its ability to inhibit muscarinic receptor in rat cerebral cortex using [3H]quinuclidinyl benzilate (QNB); Range is 3400-4200
[10] = biological target: Muscarinic acetylcholine receptor; experiment: Compound was tested for its ability to inhibit muscarinic receptor in rat cerebral cortex using [3H]oxotremorine-M (OXO-M); Range is 62-70
[11] = biological target: Muscarinic acetylcholine receptor; experiment: Compound was tested for its ability to inhibit muscarinic receptor in rat cerebral cortex using [3H]quinuclidinyl benzilate (QNB); Range is 730-1300
[12] = biological target: Muscarinic acetylcholine receptor; experiment: Compound was tested for its ability to inhibit muscarinic receptor in rat cerebral cortex using [3H]quinuclidinyl benzilate (QNB); Range is […]
[13] = biological target: Muscarinic acetylcholine receptor; experiment: Compound was tested for its ability to inhibit muscarinic receptor in rat cerebral cortex using [3H]quinuclidinyl benzilate (QNB); Range is 330-360
[14] = biological target: Muscarinic acetylcholine receptor; experiment: Compound was tested for its ability to inhibit muscarinic receptor in rat cerebral cortex using [3H]oxotremorine-M (OXO-M); Range is 18-21
[15] = biological target: Muscarinic acetylcholine receptor; experiment: Compound was tested for its ability to inhibit muscarinic receptor in rat cerebral cortex using [3H]quinuclidinyl benzilate (QNB); Range is 9700-23000
[16] = biological target: Muscarinic acetylcholine receptor; experiment: Compound was tested for its ability to inhibit muscarinic receptor in rat cerebral cortex using [3H]oxotremorine-M (OXO-M); Range is 65-260

- IC50 [1]: 4.5 µM
- IC50 [2]: 0.15 µM
SMILES: CO/N=C(/C#N)C1=CCCN(C)C1

SMILES: CO/N=C(/Cl)C1=CC2CCN(C1)C2 (configuration not stated)
- IC50 [3]: 0.77 µM
- IC50 [4]: 0.069 µM

- IC50 [5]: 0.039 µM
SMILES: CO/N=C(/F)C1=CCCN(C)C1

- IC50 [6]: 0.26 µM
- IC50 [7]: 2.8 µM
SMILES: CO/N=C(/Cl)C1=CCCN(C)C1

SMILES: COC(=O)C1=CC2CCN(C1)C2 (configuration not stated)
- IC50 [8]: 0.027 µM
- IC50 [9]: 3.8 µM

SMILES: CO/N=C\C1=CC2CCN(C1)C2 (configuration not stated)
- IC50 [10]: 0.064 µM
- IC50 [11]: 0.96 µM

SMILES: CO/N=C(/F)C1=CC2CCN(C1)C2 (configuration not stated)
- IC50 [5]: 0.026 µM
- IC50 [12]: 0.63 µM

SMILES: CO/N=C(/C#N)C1=CC2CCN(C1)C2 (configuration not stated)
- IC50 [13]: 0.35 µM
- IC50 [14]: 0.02 µM

- IC50 [15]: 14 µM
- IC50 [16]: 0.11 µM
SMILES: CO/N=C\C1=CCCN(C)C1

From ChEMBL document CHEMBL1127881 (Bioorg Med Chem Lett, 1994)
